Active and inactive are the calls of the source. Rule as the data show it, for most assays here: actives have a measured Kd and inactives only a lower limit.
What was measured:
Ephrin type-B receptor 3 = target: T1, Ephrin type-B receptor 3 (Homo sapiens, UniProt P54753)
T1 sequence (P54753 whole entry): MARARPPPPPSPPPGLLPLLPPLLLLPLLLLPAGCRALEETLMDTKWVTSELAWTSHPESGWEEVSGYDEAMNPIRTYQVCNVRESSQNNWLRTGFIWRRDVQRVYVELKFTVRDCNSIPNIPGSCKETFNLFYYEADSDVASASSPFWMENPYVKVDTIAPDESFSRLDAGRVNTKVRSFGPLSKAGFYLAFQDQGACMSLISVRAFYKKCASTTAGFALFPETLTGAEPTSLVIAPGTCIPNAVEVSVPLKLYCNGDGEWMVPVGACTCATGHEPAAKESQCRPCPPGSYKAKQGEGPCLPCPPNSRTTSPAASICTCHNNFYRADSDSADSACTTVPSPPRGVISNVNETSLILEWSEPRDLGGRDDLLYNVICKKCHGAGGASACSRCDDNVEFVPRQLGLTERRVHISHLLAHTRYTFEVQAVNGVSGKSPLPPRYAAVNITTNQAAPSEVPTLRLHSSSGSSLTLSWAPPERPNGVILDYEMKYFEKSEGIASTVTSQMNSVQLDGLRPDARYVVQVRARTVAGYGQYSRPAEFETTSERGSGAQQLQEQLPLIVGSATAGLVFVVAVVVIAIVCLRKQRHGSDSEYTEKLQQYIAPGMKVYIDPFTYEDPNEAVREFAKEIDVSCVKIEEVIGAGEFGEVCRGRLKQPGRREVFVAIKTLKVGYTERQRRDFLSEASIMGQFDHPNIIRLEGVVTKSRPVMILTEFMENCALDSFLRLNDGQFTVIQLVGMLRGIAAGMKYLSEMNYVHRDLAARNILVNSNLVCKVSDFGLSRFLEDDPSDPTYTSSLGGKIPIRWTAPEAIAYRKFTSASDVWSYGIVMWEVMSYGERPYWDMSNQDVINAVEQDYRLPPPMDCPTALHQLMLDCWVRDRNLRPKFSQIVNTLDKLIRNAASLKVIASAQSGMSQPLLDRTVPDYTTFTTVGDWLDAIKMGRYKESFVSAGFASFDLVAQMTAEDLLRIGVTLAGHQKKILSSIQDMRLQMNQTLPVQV

[1] = target: T2, Mitogen-activated protein kinase kinase kinase kinase 3 (Homo sapiens, UniProt Q8IVH8)
T2 sequence (Q8IVH8 whole entry): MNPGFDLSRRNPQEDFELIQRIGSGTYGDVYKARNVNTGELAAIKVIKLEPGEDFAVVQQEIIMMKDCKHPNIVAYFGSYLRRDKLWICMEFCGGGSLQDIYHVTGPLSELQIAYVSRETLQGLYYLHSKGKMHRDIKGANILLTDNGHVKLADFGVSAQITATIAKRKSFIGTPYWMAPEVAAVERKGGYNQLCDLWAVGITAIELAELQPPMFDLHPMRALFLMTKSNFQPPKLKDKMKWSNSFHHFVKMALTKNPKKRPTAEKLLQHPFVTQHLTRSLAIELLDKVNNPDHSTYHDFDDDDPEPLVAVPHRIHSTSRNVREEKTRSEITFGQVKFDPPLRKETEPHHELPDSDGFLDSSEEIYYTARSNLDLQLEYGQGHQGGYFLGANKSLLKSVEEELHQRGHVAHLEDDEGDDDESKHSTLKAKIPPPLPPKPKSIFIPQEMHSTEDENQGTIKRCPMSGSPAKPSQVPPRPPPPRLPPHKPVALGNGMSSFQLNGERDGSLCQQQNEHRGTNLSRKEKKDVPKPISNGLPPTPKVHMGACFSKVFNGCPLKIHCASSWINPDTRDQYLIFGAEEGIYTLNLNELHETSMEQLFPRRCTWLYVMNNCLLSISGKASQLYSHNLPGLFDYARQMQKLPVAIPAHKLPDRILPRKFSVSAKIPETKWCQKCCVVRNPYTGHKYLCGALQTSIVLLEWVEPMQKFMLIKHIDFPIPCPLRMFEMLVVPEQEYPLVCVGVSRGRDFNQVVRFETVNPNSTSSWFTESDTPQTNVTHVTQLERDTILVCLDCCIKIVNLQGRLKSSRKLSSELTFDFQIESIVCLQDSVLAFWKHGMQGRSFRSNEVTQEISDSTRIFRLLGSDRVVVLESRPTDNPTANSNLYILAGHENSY

Activin receptor type-1B = target: T3, Activin receptor type-1B (Homo sapiens, UniProt P36896)
T3 sequence (P36896 whole entry): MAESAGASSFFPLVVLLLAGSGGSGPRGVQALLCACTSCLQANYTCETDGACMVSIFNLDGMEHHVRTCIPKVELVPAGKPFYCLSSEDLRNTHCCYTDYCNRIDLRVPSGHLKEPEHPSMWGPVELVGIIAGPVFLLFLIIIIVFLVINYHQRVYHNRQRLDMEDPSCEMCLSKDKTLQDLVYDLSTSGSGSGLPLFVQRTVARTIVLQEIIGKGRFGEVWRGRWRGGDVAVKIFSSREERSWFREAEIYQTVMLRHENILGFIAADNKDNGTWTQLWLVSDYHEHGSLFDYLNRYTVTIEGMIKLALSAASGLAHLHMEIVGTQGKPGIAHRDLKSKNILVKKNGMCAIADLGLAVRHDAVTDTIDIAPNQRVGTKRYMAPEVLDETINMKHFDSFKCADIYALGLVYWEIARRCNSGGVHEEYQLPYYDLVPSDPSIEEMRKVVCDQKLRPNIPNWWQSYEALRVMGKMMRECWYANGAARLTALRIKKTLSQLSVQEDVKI

[2] = target: T4, Ferrochelatase, mitochondrial (Homo sapiens, UniProt P22830)
T4 sequence (P22830 whole entry): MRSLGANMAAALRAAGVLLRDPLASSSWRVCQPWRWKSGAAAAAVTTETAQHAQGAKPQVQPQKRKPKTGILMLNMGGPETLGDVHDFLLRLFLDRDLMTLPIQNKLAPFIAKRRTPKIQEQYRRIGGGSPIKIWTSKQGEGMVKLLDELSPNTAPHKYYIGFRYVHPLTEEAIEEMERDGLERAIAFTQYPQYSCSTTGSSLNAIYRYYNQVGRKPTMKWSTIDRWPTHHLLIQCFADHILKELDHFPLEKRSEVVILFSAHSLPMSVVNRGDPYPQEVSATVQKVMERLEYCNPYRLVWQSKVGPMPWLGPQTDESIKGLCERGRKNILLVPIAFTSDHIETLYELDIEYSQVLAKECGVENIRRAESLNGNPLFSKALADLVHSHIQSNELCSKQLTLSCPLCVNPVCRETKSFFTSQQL

[3] = target: Dual specificity testis-specific protein kinase 1 (Homo sapiens, UniProt Q15569)
Also: in the data inactive means no Kd found up to 30 µM.

Sequence of Dual specificity testis-specific protein kinase 1 (Q15569 whole entry): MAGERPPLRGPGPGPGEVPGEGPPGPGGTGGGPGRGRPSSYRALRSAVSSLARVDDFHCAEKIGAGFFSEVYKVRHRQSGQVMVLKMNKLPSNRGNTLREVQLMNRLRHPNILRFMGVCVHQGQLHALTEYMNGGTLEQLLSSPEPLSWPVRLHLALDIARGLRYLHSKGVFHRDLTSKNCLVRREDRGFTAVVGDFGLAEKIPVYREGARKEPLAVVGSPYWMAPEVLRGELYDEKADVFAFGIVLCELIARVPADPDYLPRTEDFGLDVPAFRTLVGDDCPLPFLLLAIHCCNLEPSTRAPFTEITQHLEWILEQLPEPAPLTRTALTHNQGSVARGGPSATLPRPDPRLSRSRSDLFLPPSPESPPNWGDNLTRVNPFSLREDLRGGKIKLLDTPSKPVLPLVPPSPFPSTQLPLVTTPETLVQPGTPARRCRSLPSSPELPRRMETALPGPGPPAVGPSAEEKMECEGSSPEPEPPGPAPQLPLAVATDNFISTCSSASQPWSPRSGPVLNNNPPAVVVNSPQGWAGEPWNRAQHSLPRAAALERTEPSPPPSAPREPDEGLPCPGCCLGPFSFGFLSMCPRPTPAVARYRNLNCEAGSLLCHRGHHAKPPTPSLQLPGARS

SMILES | Kd (Ephrin type-B receptor 3) | Kd [1] | Kd (Activin receptor type-1B) | Kd [2] | Kd [3]
C[C@@H](Oc1cc(C(=O)Nc2ccc(C(=O)N3CCN(C)CC3)cc2)nnc1N)c1c(Cl)ccc(F)c1Cl | > 30 µM (inactive) | > 30 µM (inactive) | > 30 µM (inactive) | > 30 µM (inactive) | –
C[C@H]1CNCCCN1S(=O)(=O)c1cccc2cncc(F)c12 | > 30 µM (inactive) | 3.22 µM | > 30 µM (inactive) | > 30 µM (inactive) | > 30 µM (inactive)
CC(=O)c1cnc2ccc(-c3cc(Cl)c(O)c(Cl)c3)nc2c1N[C@H]1CC[C@H](CN(C)C)CC1 | > 30 µM (inactive) | > 30 µM (inactive) | – | 1.09 µM (active) | –
CCNC(=O)C#Cc1ccc2c(c1)NC(=O)/C2=C(\Nc1ccc(CN(C)C)cc1)c1ccccc1 | > 30 µM (inactive) | > 30 µM (inactive) | > 30 µM (inactive) | 3.48 µM (active) | > 30 µM (inactive)
C=CC(=O)N1CCC[C@H](n2c(=O)n(-c3ccc(Oc4ccccc4)cc3)c3c(N)ncnc32)C1 | > 30 µM (inactive) | > 30 µM (inactive) | > 30 µM (inactive) | > 30 µM (inactive) | > 30 µM (inactive)
Cc1nc2cc(-c3nn(C(C)C)c4ncnc(N)c34)ccc2o1 | > 30 µM (inactive) | > 30 µM (inactive) | 0.767 µM (active) | > 30 µM (inactive) | > 30 µM (inactive)
COCc1c(-c2ccc(NC(=O)Nc3cc(C(F)(F)F)ccc3F)c(F)c2)c2c(N)ncnn2c1CN1CCOCC1 | > 30 µM (inactive) | > 30 µM (inactive) | > 30 µM (inactive) | > 30 µM (inactive) | > 30 µM (inactive)
Nc1ncnc2c1c(-c1cccc(OCc3ccccc3)c1)cn2[C@H]1C[C@@H](CN2CCC2)C1 [AEW-541] | > 30 µM (inactive) | > 30 µM (inactive) | > 30 µM (inactive) | 6.5 µM (active) | –
COc1cc(Nc2ncc3c(n2)-c2ccc(Cl)cc2C(c2c(F)cccc2OC)=NC3)ccc1C(=O)O [ALISERTIB] | – | > 30 µM (inactive) | > 30 µM (inactive) | > 30 µM (inactive) | > 30 µM (inactive)
Cc1nc(NC(=O)N2CCC[C@H]2C(N)=O)sc1-c1ccnc(C(C)(C)C(F)(F)F)c1 [ALPELISIB] | > 30 µM (inactive) | > 30 µM (inactive) | > 30 µM (inactive) | > 30 µM (inactive) | > 30 µM (inactive)
Cc1csc(-c2nnc(Nc3ccc(Oc4ncccc4-c4ccnc(N)n4)cc3)c3ccccc23)c1 [AMG-900] | > 30 µM (inactive) | > 30 µM (inactive) | > 30 µM (inactive) | > 30 µM (inactive) | > 30 µM (inactive)
O=C(Nc1c[nH]nc1-c1nc2cc(CN3CCOCC3)ccc2[nH]1)NC1CC1 [AT-9283] | > 30 µM (inactive) | > 30 µM (inactive) | 0.811 µM (active) | > 30 µM (inactive) | > 30 µM (inactive)
C=CC(=O)Nc1cc2c(Nc3ccc(F)c(Cl)c3)ncnc2cc1C#CC(C)(C)N1CCN(C)CC1 [AV-412 FREE BASE] | > 30 µM (inactive) | > 30 µM (inactive) | > 30 µM (inactive) | > 30 µM (inactive) | > 30 µM (inactive)
CNC(=O)c1ccccc1Sc1ccc2c(/C=C/c3ccccn3)n[nH]c2c1 [AXITINIB] | – | – | – | 6.84 µM (active) | –
COc1cc([C@@H]2c3cc4c(cc3[C@H](O)[C@H]3COC(=O)[C@@H]23)OCO4)cc(OC)c1OC [AXL-1717] | > 30 µM (inactive) | > 30 µM (inactive) | > 30 µM (inactive) | > 30 µM (inactive) | > 30 µM (inactive)
NC(=O)Nc1cc(-c2cccc(F)c2)sc1C(=O)N[C@H]1CCCNC1 [AZD-7762] | > 30 µM (inactive) | 0.363 µM (active) | > 30 µM (inactive) | > 30 µM (inactive) | > 30 µM (inactive)
Cc1cc(C(=O)NOCCO)c(Nc2ccc(I)cc2F)n(C)c1=O [AZD-8330] | > 30 µM (inactive) | > 30 µM (inactive) | > 30 µM (inactive) | > 30 µM (inactive) | –
Cn1cc(C2=C(c3cn(C4CCN(Cc5ccccn5)CC4)c4ccccc34)C(=O)NC2=O)c2ccccc21 [ENZASTAURIN] | – | – | – | > 30 µM (inactive) | –
C[C@@H](Oc1cc(-n2cnc3ccc(CN4CCN(C)CC4)cc32)sc1C(N)=O)c1ccccc1C(F)(F)F [GSK-461364] | – | – | – | > 30 µM (inactive) | –
CCn1cc(-c2ccnc3[nH]c(-c4cccc(CN(C)C)c4)cc23)c(-c2ccc(NC(=O)N(C)C)cc2)n1 [GSK-1070916] | > 30 µM (inactive) | – | 1.21 µM (active) | 2.41 µM (active) | –
CNC(=O)c1nn(C)c2c1C(C)(C)Cc1cnc(Nc3ccc(N4CCN(C)CC4)cc3)nc1-2 [MILCICLIB] | – | 2.06 µM (active) | > 30 µM (inactive) | > 30 µM (inactive) | > 30 µM (inactive)
Cc1[nH]c(/C=C2\C(=O)Nc3ccccc32)c(C)c1CCC(=O)O [ORANTINIB] | > 30 µM (inactive) | – | > 30 µM (inactive) | > 30 µM (inactive) | > 30 µM (inactive)
NC(=O)c1c(OCc2c(F)cc(Br)cc2F)nsc1NC(=O)NCCCCN1CCCC1 [OSI-632] | > 30 µM (inactive) | – | 0.004 µM (active) | > 30 µM (inactive) | 1.42 µM (active)
O=C(NOCCO)c1cc(CN2OCCCC2=O)c(F)c(F)c1Nc1ccc(I)cc1F [RO-4987655] | – | – | – | > 30 µM (inactive) | –
N#CC[C@H](C1CCCC1)n1cc(-c2ncnc3[nH]ccc23)cn1 [RUXOLITINIB] | – | – | – | > 30 µM (inactive) | –
CCS(=O)(=O)c1cccc(-c2cc(C(=O)NC3CCN(C)CC3)c(C)c3[nH]c4ncc(C)cc4c23)c1 [TAK-901] | – | 9.28 µM | > 30 µM (inactive) | > 30 µM (inactive) | > 30 µM (inactive)
Cn1ncc(Cl)c1-c1cc(C(=O)N[C@H](CN)Cc2ccc(F)c(F)c2)oc1Cl [UPROSERTIB] | > 30 µM (inactive) | > 30 µM (inactive) | > 30 µM (inactive) | > 30 µM (inactive) | –
